# Where two headings read alike, the source gives them in different places.
# Assays:
# Acute toxicity = conditions: mouse, in vivo; Intraperitoneal administration (ip), mice, 14th day
# Procedure: Solutions of test compounds in predetermined concentrations were administered (0.1 ml/10 g body weight) to female BALB/c CrSlc mice (5 to 10 animals per one group, 10 weeks old) respectively, and, thus, LD50 values were calculated from the mortalities of the mice on the 14th day after the administration.
# [1] = test system: human cancer cells (KB, MX-1, WiDr, HMV-2, LX-1) implanted in nude mice; assay: Growth inhibition of human cancer cells implanted in nude mice (Test Examples 5 to 9); format: in vivo, human cancer cells in BALB/c nude mice; conditions: 50 mg/kg, FIGS. 1-9 (cell line not stated)
# Procedure: In the following Test examples 5 to 9, human cancer cells were implanted in nude mice, to which test compounds dissolved in an aqueous solution containing NaOH were administered, and, thus, the degree of growth inhibition of cancer cells was observed.
# FIGS. 1-9 show the variation with the lapse of days of IR.
# FIGS. 10-14 show the relation between tumor weight and the lapse of days in the case where Compound 1--1 was used in Test examples 5-9. Vertical axis corresponds to tumor weight, and horizontal axis corresponds to the days which passed after the start of administration. Tumor weight was estimated from tumor diameter. The term Control in FIGS. 10-14 means tumor weight variation with days in nude mice to which, although cancer cells had been implanted, no test compounds had been administered.
# In the following, there is explained schedule of administration of test compounds in nude mice. After days of × in number have passed from implantation of human cancer cells in nude mice, test compounds are intraperitoneally (ip) administered for y days, followed by wash-out periods of days of z in number. Thereafter, test compounds are administered again for y days. In this case, the cycle of administration (y days) and discontinuation (z days) is called "course". Such a schedule is denoted by marks as follows:
# [(x) (y) (z) (course) (ip)]
# These marks are explained below with an example. […]
# A427 human lung cancer = assay: In vitro anti-tumor activity against A-427 human lung cancer (MTT); format: cell-based; conditions: A-427, 72 h, MTT, read-out: IC50
# In short: (§1)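 Test compound was applied for 72 h to 500–2,000 seeded cells per well, following a 20 h attachment at 37° C under 5% CO2. Viability was read by MTT, 4 h with 5 mg/ml reagent and formazan taken up in DMSO.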
# HMV2 human melanoma = assay: In vitro anti-tumor activity against HMV-2 human melanoma (MTT); format: cell-based; conditions: HMV-2, 72 h, MTT, read-out: IC50
# In short: as §1
# [2] = test system: murine P388 lymphocytic leukemia cells; assay: Increases in life span of mice implanted with murine P388 lymphocytic leukemia cells; format: in vivo, SLC: BDF1 mice; conditions: Mus musculus, P388, ip, 720 h, ip
# C33A human cervix cancer = assay: In vitro anti-tumor activity against C-33A human cervix cancer (MTT); format: cell-based; conditions: C-33A, 72 h, MTT, read-out: IC50
# In short: as §1
# [3] = test system: AZ521 human stomach cancer; assay: In vitro anti-tumor activity against AZ-521 human stomach cancer (MTT); format: cell-based; conditions: AZ-521, 72 h, MTT, read-out: IC50
# In short: as §1
# [4] = NCI criterion, read-out: Evaluation
# [5] = days 1 and 5, in solution, read-out: ILS (%) (in solution)
# [6] = days 1 and 5, in suspension, read-out: ILS (%) (in suspension)
structure (smiles),measurement,setting,value
"CN[C@@H]1CN(c2ccc3c(=O)c(C(=O)O)cn(-c4nccs4)c3n2)C[C@H]1OC.Cl (relative stereo) [Compound 1-1, 1,4-dihydro-7-(trans-3-methoxy-4-methylamino-1-pyrrolidinyl)-4-oxo-1-(2-thiazolyl)-1,8-naphthyridine-3-carboxylic acid hydrochloride]",LD50 at 336 h,Acute toxicity,93.2 mg/kg
same,Tumor Growth Inhibition Rate IR % on the last day of observation,[1],91%
same,IC50,A427 human lung cancer,0.0871 µg/mL
same,IC50,HMV2 human melanoma,0.131 µg/mL
same,ILS at 0.78 mg/kg,[2]; [4],20 to 74%
same,ILS at 1.56 mg/kg,[2]; [4],20 to 74%
same,ILS at 3.13 mg/kg,[2]; [4],> 75%
same,ILS at 6.25 mg/kg,[2]; [4],> 75%
same,ILS at 12.5 mg/kg,[2]; [4],> 75%
same,ILS at 25 mg/kg,[2]; [4],> 75%
same,ILS at 50 mg/kg,[2]; [4],> 75%
same,ILS at 0.78 mg/kg,[2]; [5],50%
same,ILS at 1.56 mg/kg,[2]; [5],63%
same,ILS at 3.13 mg/kg,[2]; [5],100%
same,ILS at 3.13 mg/kg,[2]; [6],88%
same,ILS at 6.25 mg/kg,[2]; [5],125%
same,ILS at 12.5 mg/kg,[2]; [5],150%
same,ILS at 12.5 mg/kg,[2]; [6],175%
same,ILS at 25 mg/kg,[2]; [5],200%
same,ILS at 50 mg/kg,[2]; [5],> 275%
same,solubility,"physchem; 0.1 m phosphate buffer, pH 7.2, aqueous buffer",20.1 mg/mL
same,solubility,physchem; water,2.9 mg/mL
same,IC50,C33A human cervix cancer,0.137 µg/mL
same,IC50,[3],0.0561 µg/mL

# Source: patent US5817669A, “Compounds, processes for the preparation thereof and anti-tumor agents” (Dainippon Pharmaceutical Co., Ltd., priority 1994, dated 1998)
